The subject of assay [1] is phosphorylated eIF2α in hPSCs. The experiment in a line: Phospho-eIF2α immunoblot, ES cells. The assay is classed as cell-based, human. As to conditions: 20 μM PluriSIn #1 or 100 nm A939572. The method, then:
For immunoblotting, 10% polyacrylamide gel was used for protein separation and detection. The gel was transferred to a nitrocellulose membrane and antibody hybridization and chemiluminescence were performed according to standard procedures. The primary antibodies in this analysis were rabbit anti-phosphorylated-eIF2a (1:250, Cell Signaling Technology), rabbit anti caspase-3 (1:1,000, Cell Signaling Technology), mouse anti β-catenin (1:10,000, BD Biosciences) and mouse anti-α-tubulin (1:50,000, Sigma-Aldrich). Horseradish peroxidase-conjugated anti-rabbit and anti-mouse secondary antibodies were obtained from Jackson Immunoresearch Laboratories.
To further study the significance of UPR, XBP1 mRNA splicing and eIF2α phosphorylation, hallmarks of UPR, were further examined. Human ES cells and ES-derived differentiated cells were treated with PluriSIn #1 for 12 hours, and expression of the spliced isoform sXBP1 was determined by quantitative PCR and by immunoblotting, as described in the Materials and Methods section. Gene expression change conferred by dithiothreitol ([…]) was used as a positive control.
(In general: Immunoblotting shows a protein as a band on a membrane.)

Assay [2] has as its system ES-derived neural stem cells. Put plainly: CellTiter-Glo counter-screen, neural stem cells. The assay is classed as cell-based. As to conditions: Homo sapiens, Neural stem cell.
A further assay concerns Huh7 cells. Put plainly: CellTiter-Glo counter-screen, Huh7. The assay is classed as cell-based. As to conditions: Homo sapiens, Huh-7, cancer cells. As to the method: The hepatocarcinoma cell line Huh-7 was cultured in a DMEM/F12 (1:1) medium, supplemented with 10% FBS, penicillin (50 U/ml) and streptomycin (50 μg/ml).
(§1) 696 confirmed hits from the confirmation screen were tested for profiling in a panel of 13 different cell types, using the same screening protocol described above (except in the case of embryonic stem cell-derived neural stem cells (NSCs) and mesenchymal stem cells (MSCs), for which the protocol is described below). As discussed below, compounds were tested either in dose-dependent multiple concentration manner or in single concentration manner. CSES2 and CSES2-SO2/3 cell lines and the early endodermal progenitors derived from this cell line (CSES2-SO2/3-differentiated) were screened at 8 concentrations ranging from 50 μM to 23 nM with 1:3 serial dilution steps. BJ-iPS28 cell line and the BJ fibroblasts from which it was derived were screened at 6 concentrations ranging from 50 μM to 200 nM with 1:3 serial dilution steps. Cardiomyocytes were screened in one concentration of 20 μM. HeLa and NTERA-2 cell lines were screened in duplicates of 20 μM. Kelly and Huh-7 were screened in triplicates of 20 μM. Hepatocytes were screened in duplicates of 20 μM in the original 96-well plates in which the cells arrived (40,000 cells per well, in 160 μl medium, the volumes of all reagents involved were adjusted accordingly). MSCs and NSCs were screened in duplicates of 12.5 μM.
(§2) In order to identify highly-selective cytotoxic inhibitors of hPSCs, the 696 cytotoxic inhibitors of hPSCs identified as described in Example 1 were counter-screened as described in the Materials and Methods section against other cell types, representative of all germ layers and developmental stages. Importantly, many of these cell types were differentiated from human ES or iPS cells. The screened cell types included ES-derived neural stem cells (NSCs), ES-derived mesenchymal stem cells (MSCs), ES-derived endodermal progenitor cells, ES-derived hepatocytes, iPS-derived cardiomyocytes, iPS-derived fibroblasts of origin (BJ fibroblasts), and three cancer cell lines: neuroblastoma (Kelly), cervical cancer (HeLa) and hepatocarcinoma (Huh7). The cell types and their relationship to stem cells are depicted schematically in FIG. 14.
For orientation: Cellular ATP, detected with luciferase, serves as a proxy for viable cell number.

The subject of the next assay is HeLa cells. The experiment in a line: CellTiter-Glo counter-screen, HeLa. The assay is classed as cell-based. As to conditions: Homo sapiens, cancer cells. As to the method:
The cervical carcinoma cell line HeLa, teratocarcinoma cell line NTERA-2, and immortalized BJ fibroblast cell line, were cultured in DMEM supplemented with 10% FBS, penicillin (50 U/ml) and streptomycin (50 μg/ml).
as §1, §2

The subject of assay [3] is H9 human embryonic stem cells. The experiment in a line: CellTiter-Glo luminescent cell viability screen, H9. As to conditions: pluripotent stem cells. The assay is classed as cell-based. As to the method: 5,000 CSES2 cells were plated in 50 μl per well of mTeSR1 medium into black 384-well clear-bottom plates (Falcon BD) pre-coated with Matrigel™ using WellMate cell dispenser (Matrix, Hudson, N.H.). 24 hours after plating, medium was replaced with 25 μl of fresh medium and 25 μl of 40 μM compound medium solutions in 1% DMSO from the intermediate compound dilution plates. The plates were incubated at 37° C., in a 5% CO2 atmosphere, for the entire duration of the screen, apart from the time required for liquid handling. Cell viability was determined 24 hours after compound treatment using CellTiter-Glo® luminescent cell viability assay kits. 50 μl of CellTiter-Glo® reagent was added to each well of the assay plates and fully mixed. After incubation at room temperature for 15 minutes, 25 μl of liquid was transferred from each well into a white opaque-bottom 384-well plate (PerkinElmer), and luminescence was measured using an EnVision® plate reader (PerkinElmer). 16 neutral control wells (0.5% DMSO) and 8 positive control wells (5 μM amsacrine hydrochloride were used to normalize the compound effect. All liquid transfer steps were handled with a Biomek® FXP Laboratory Automation Workstation (Beckman Coulter, Fullerton, Calif.) and Muitidrop Combi liquid dispenser (Thermo Fisher, Waltham, Mass.). An Assay Analyzer (Genedata, Basel, Switzerland) was used for data pattern correction and calculation. The Spotfire software (Spotfire, Somerville, Mass.) was used for data illustration.
The compounds identified as hits from the primary screen were retested at a concentration of 20 μM against three pluripotent stem cell lines (CSES2, H9 and CSES2-SO2/3) for confirmation screens.
The raw intensity data for each well were background-corrected by subtraction of the median intensities across all positive control wells on the same plate, and used to calculate the inhibitory effect of each compound per cell line. A Genedata Assay Analyzer and Condoseo were used for data pattern correction, calculation and IC50 curve fitting. A Z′ factor was determined for each plate.

In assay [4] the test system is human embryonic stem cells. The experiment in a line: Oleic acid rescue assay. The assay is classed as cell-based. As to conditions: 20 μM PluriSIn (2 μM amsacrine); up to 100 μM BSA-OA. The method, then:
Human embryonic stem cells were cultured without feeder cells in CELLSTAR® 24-well tissue culture plates (Greiner Bio-One) pre-coated with Matrigel™, using mTeSR1 defined medium. […] After 24 hours, the cells were subjected to microscopy imaging and to cell viability measurements.
In order to further investigate the effect of SCD activity on hPSC viability, the ability of exogenous supplementation of oleic acid (the direct product of SCD1) to rescue cells from PluriSIn-induced apoptosis was further studied, using procedures described in the Materials and Methods section. Cells were exposed to PluriSn #1 in the presence of increasing concentrations of BSA-conjugated oleic acid (BSA-OA).
For comparison, cells were exposed to 20 μM of PluriSIn #1, #2, #3 and #6 in the presence of 100 μM BSA-OA.

Data on 16 molecules can be found in patent US20180153830A1, “SELECTIVE INHIBITORS OF UNDIFFERENTIATED CELLS” (Yissum Research Development Company of the Hebrew …, priority 2012, published 2018).

Molecules are shown by their SMILES. “Also recorded” adds a separate entry of the source.

Take `CNC(=O)c1cccc(NC(=O)N2CCC(Oc3ccccc3Cl)CC2)c1` [A939572, 4-(2-chlorophenoxy)-N-(3-(methylcarbamoyl)-phenyl)piperidine-1-carboxamide, reference compound]: in assay [1], the “levels of phosphorylated eIF2α, ES cells” value is “increased levels”.
The inhibition is the drop in the measured response relative to a control, in per cent. In the case of `O=C(NNc1ccccc1)c1ccncc1` [PluriSIn #1, isonicotinic acid N′-phenylhydrazide], in assay [2], the inhibition at 12.5 µM was determined as 18.2%. In addition, the inhibition at 20 µM in the assay on Huh7 cells was 5.8%; in the assay with HeLa cells, 5.7%; in assay [3], 88.6%. The “levels of phosphorylated eIF2α, ES cells” value in assay [1] is reported as “increased levels”. In addition, in assay [4], the “protection by BSA-conjugated oleic acid (BSA-OA) against cell death induced by the compound” value is recorded as “full rescue; also recorded: protected”.
On to `O=C(Nc1ccccc1)n1cc(F)c(=O)[nH]c1=O` [PluriSIn #2], for which the inhibition at 12.5 µM in assay [2] amounted to 53.6%. Besides, the values for the inhibition at 20 µM (in the assay on Huh7 cells; in the assay on HeLa cells; in assay [3]) were -0.2%, -2.1% and 65.4%, respectively.
Taken in the same sequence, the figures for `Nc1cc(N)cc(COc2ccc(-c3ccccc3)cc2)c1` [PluriSIn #3] were 90.4%, -5.9%, -4.2% and 110%.
`O=C(NCCc1ccc(O)cc1)c1ccc(N2CCCCC2)cc1` [PluriSIn #4]: the inhibition at 12.5 µM in assay [2] worked out at 15.5%. Besides, the results for the inhibition at 20 µM (in the assay with Huh7 cells; in the assay with HeLa cells; in assay [3]) were 12.1%, 2.2% and 74.1%, respectively.
On to `O=S(=O)(NNc1ccccc1)c1ccc2ccccc2c1` [PluriSIn #5], for which the inhibition at 12.5 µM in assay [2] is 60.9%. Further, the figures for the inhibition at 20 µM (in the assay on Huh7 cells; in the assay on HeLa cells; in assay [3]) were 3.6%, -0.6% and 82.2%, respectively. In addition, in assay [4], the “protection by BSA-conjugated oleic acid (BSA-OA) against cell death induced by the compound” value is given as “protected”.
Taken in the same sequence, the figures for `Cc1ccc(NNC(=O)C(O)(c2ccccc2)c2cccs2)cc1` (centres unmarked) [PluriSIn #6, 2-hydroxy-2-(thiophen-2-yl)-2-phenylacetic acid 4-methyl-N′-phenylhydrazide] were 16.5%, 4.6%, 2.6%, 90.1% and “protected”.
On to `CC(=O)Oc1ccc(/C=C/c2ccc3c(c2)CCN3C)cc1` [PluriSIn #7], for which the inhibition at 12.5 µM in assay [2] is 92.8%. The inhibition at 20 µM in the assay with Huh7 cells is 11.2%; in the assay on HeLa cells, -3.6%; in assay [3], 109%.
For `Cc1oc2ccccc2c1/C=N/Nc1ccccc1` [PluriSIn #8], the inhibition at 12.5 µM in assay [2] amounted to 15%. In addition, the inhibition at 20 µM came out at 10.9% in the assay on Huh7 cells, 14.3% in the assay on HeLa cells and 85.5% in assay [3].
Taken in the same sequence, the figures for `C/C(=N\O)NNc1ccc(Cl)cc1` [PluriSIn #9] were 28.9%, 10.4%, -0.7% and 101%.
The corresponding values for `CCCCCC(=O)NNc1ccc(Cl)cc1` [PluriSIn #10] are 23.7%, 9.3%, 3% and 88%.
As to `CCOC(=O)CN1CC(=O)/C(=C\NNc2ccccc2)C1=O` [PluriSIn #11], the inhibition at 12.5 µM in assay [2] is 17.2%. The inhibition at 20 µM with Huh7 cells is 7%; in the assay with HeLa cells, -0.7%; in assay [3] it was 94%.
The corresponding values for `CCN(CC)C(=O)C(=O)c1c(-c2ccccc2)[nH]c2c1sc1ccccc12` [PluriSIn #12] are 9.9%, -1%, 15.2% and 95.8%.
With `O=C1C=CC=C1/C=C/C(=N\Nc1ccccc1)c1ccccc1` [PluriSIn #13], the inhibition at 12.5 µM in assay [2] came out at 29.7%. In addition, the inhibition at 20 µM with Huh7 cells worked out at 11.8%; with HeLa cells, 0%; in assay [3], 101%.
As for `O=C(NN(C(=O)c1ccccc1)c1ccccc1)c1ccc(Cl)cc1` [PluriSIn #14], the inhibition at 12.5 µM in assay [2] was 18.4%. The inhibition at 20 µM was 11.5% with Huh7 cells, -2.3% with HeLa cells and 79.4% in assay [3].
Turning to `C(=N\C1CCC(CC2CCCCC2)CC1)/OC1CCOC1` (centres unmarked) [PluriSIn #15], the inhibition at 12.5 µM in assay [2] is 70.3%. Besides, the inhibition at 20 µM was determined as 22.2% in the assay with Huh7 cells, 17.8% in the assay on HeLa cells and 79.5% in assay [3].
